# According to patent US20220356174A1, “PYRIDIN-2-ONE COMPOUNDS USEFUL AS SMARCA2 ANTAGONISTS” (Epizyme, Inc., priority 2018, published 2022):
# Columns and labels:
# [1] = molecular target: T1, FL-SMARCA2 (full-length human SMARCA2 isoform 1) (Homo sapiens, UniProt P51531); experiment: SMARCA2 ATPase activity assay (ADP-Glo, chicken mononucleosome substrate); format: biochemical; conditions: Table 3c.1; ATPase assay, enzyme 5 nM, ATP 250 uM, chicken mononucleosome 10 nM, 30 min preincubation
# T1 construct: FLAG tag (YKDDDDK) (C); made in house; host or cells: Sf21 insect cells (baculovirus, pFastBacI)
# [2] = test system: A549 cells; experiment: High-throughput proliferation (HTP) assay for A549 cells (CellTiter-Glo, 7 days); format: cell-based; conditions: Homo sapiens, 168 h, read-out: A549 SMARCA2 IC50
# Method: Thawing vials: A549 cells (ATCC #CCL-185™) were thawed from a cryovial containing approximately 1.6×10^6 cells frozen in 70% F12K medium, 20% HI-FBS and 10% DMSO. Cells were thawed by submerging the bottom half of the vial in a 37° C. water bath and gently flicked until almost thawed. The cells were transferred into a 15 mL conical tube containing 9 mL of F12K medium+10% HI-FBS and then centrifuged at 200×g for 4 min before drawing off the media without disturbing the cell pellet in order to remove the DMSO. The cells were resuspended again in 15 mL of F12K fresh complete media+10% HI-FBS and grown up in a T75 flask at 37° C. with 5% CO2 Incubator. Viability was measured to obtain baseline.
# Frozen stock vials preparation: The cell culture was transferred to a 50 mL conical tube, spun down to remove medium, and resuspended at 1-2×10^6 cells/mL in complete medium containing 10% DMSO. The culture was then stored for 24 hours at −80 degree C., (with the initial rate of freezing is −1 degree C. per minute in a freezing container), then transferred and stored in liquid nitrogen.
# (§1) Routine subculture: Sub-confluent cultures (70-80%) were split every 4 days, seeding out at 1-2×10^6 cells/75 cm^2.
# Day 0: Assay ready plates were prepared by dispensing 50 nL of compound or DMSO in the appropriate wells of 384-well white CulturPlates using Echo550. Using the Multiflo, A549 cells were plated at 50 μL/well in F12K complete media+10% HI-FBS+1% pen/strep at cell density determined [1,250 cells/mL (62.5 cells/well)] from growth curve.
# Treated cells were incubated at 37° C., 5% CO2, relative humidity >90% for 7 days. CellTiter-Glo (CTG) ATP detection reagent was prepared according to manufacturer's specifications. Cell assay plates were removed from the incubator and brought to room temperature (RT). Using the MultiDrop liquid handler, 30 μL of CTG were added per well. Plates were placed on the multidrop dispenser shake for 5 seconds at room temperature (RT). Plates were incubated for 30 minutes in the dark at RT before measuring luminescence using the Envison2104.
# Data analysis: Using the DMSO control wells as the 0% inhibition (high signal) control and the 10 μM Doxorubicin control wells as the 100% inhibition (low signal) control, percent inhibition EC50s (inflection point) and IC50 s were calculated for the compound dose responses.
# [3] = test system: H358 cells; experiment: High-throughput proliferation (HTP) assay for H358 cells (CellTiter-Glo, 7 days); format: cell-based; conditions: Homo sapiens, NCI-H358, 168 h, read-out: H358 SMARCA2 IC50
# Method: Thawing vials: H358 cells (ATCC #CRL-5807™) were thawed from a cryovial containing approximately 1.6×10^6 cells frozen in 70% RPMI 1640 medium, 20% HI-FBS and 10% DMSO. Cells were thawed by submerging the bottom half of the vial in a 37° C. water bath and gently flicked until almost thawed. The cells were removed and transferred into a 15 mL conical tube containing 9 mL RPMI 1640 medium+10% HI-FBS and then centrifuged 200×g for 4 min before drawing off the media without disturbing the cell pellet to remove the DMSO. The cells were resuspended again in 15 mL of RPMI 1640 fresh complete media+10% HI-FBS and grown up in a T75 flask at 37° C. with 5% CO2 Incubator. Viability was measured to obtain baseline.
# Preparing frozen stock vials: Cell density was counted in a stock flask. The culture was transferred to a 50 mL conical tube and spun down to remove medium, and then resuspend at 1-2×10^6 cells/mL in complete medium containing 10% DMSO and transferred to a 1 mL per vial.
# as §1
# Day 0: Assay ready plates were prepared by dispensing 50 nL of compound stock or DMSO in the appropriate wells of 384-well white CulturPlates using Echo550. Using the Multiflo, H358 cells at 50 μL/well were plated in RPMI 1640 complete media+10% HI-FBS+1% pen/strep at cell density determined [20,000 cells/mL (1,000 cells/well)] from growth curve. Treated cells were inclubated at 37° C., 5% CO2, relative humidity >90% for 7 days. CellTiter-Glo (CTG) ATP detection reagent was prepared according to manufacturer's specifications. Cell assay plates were removed from incubator and bring to room temperature (RT).
# Using the MultiDrop liquid handler, 30 μL of CTG were added per well. Plates were placed on the multidrop dispenser shake for 5 seconds at RT. Plates were incubated for 30 minutes in the dark at RT before measuring luminescence using the Envison2104.
# Data analysis: Using the DMSO control wells as the 0% inhibition (high signal) control and the 10 uM Doxorubicin control wells as the 100% inhibition (low signal) control, percent inhibition EC50s (inflection point) and IC50s were calculated for the compound dose responses.
# [4] = molecular target: FL-SMARCA4 (Homo sapiens, UniProt P51532); experiment: SMARCA4 ATPase activity assay (ADP-Glo, chicken mononucleosome substrate); conditions: FL-SMARCA4 IC>50, Table 3c.2; ATPase assay, enzyme 5 nM, ATP 250 uM, chicken mononucleosome 10 nM, 30 min preincubation
# FL-SMARCA4, sequence (P51532 whole entry): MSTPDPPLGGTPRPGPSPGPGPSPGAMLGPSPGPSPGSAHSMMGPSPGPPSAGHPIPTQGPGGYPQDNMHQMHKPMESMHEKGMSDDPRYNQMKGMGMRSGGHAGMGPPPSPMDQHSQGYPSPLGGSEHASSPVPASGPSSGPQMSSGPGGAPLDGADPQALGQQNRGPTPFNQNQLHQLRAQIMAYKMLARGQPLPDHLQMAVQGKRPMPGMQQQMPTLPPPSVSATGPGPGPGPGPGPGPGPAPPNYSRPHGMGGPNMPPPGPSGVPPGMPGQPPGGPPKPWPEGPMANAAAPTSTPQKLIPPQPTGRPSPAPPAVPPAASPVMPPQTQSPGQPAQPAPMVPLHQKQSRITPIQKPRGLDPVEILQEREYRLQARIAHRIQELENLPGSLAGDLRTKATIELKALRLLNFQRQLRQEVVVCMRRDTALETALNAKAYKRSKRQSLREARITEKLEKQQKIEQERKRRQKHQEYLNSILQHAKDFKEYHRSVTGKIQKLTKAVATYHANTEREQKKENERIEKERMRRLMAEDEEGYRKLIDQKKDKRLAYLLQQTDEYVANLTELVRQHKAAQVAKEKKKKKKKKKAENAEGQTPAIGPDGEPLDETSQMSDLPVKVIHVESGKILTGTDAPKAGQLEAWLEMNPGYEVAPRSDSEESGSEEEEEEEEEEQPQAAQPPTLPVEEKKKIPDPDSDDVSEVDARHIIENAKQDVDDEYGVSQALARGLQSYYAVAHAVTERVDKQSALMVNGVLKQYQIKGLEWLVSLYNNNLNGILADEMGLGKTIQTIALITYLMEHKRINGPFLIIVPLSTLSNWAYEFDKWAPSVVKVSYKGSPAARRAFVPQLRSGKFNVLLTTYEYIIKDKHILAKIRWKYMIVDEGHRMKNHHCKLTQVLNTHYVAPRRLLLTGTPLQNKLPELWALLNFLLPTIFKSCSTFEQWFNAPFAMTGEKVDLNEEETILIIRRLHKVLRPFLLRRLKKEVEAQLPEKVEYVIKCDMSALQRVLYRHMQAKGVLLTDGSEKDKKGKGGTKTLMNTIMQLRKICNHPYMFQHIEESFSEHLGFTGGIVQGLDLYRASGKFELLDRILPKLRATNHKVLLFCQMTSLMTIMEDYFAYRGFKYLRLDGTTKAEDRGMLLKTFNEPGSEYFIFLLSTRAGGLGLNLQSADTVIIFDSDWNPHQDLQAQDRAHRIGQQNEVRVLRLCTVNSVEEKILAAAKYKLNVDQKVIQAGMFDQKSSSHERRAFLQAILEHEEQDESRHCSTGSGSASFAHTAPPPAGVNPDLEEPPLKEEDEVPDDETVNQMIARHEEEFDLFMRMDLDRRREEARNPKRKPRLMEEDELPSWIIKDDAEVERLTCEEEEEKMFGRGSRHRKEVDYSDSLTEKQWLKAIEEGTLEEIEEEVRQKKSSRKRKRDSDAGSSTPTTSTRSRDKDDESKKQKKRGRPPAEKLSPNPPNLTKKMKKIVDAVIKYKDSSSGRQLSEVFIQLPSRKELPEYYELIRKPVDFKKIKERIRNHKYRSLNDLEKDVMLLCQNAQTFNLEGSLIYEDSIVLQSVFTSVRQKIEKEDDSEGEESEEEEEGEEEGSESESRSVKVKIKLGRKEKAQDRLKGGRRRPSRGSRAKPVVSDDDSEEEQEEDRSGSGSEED
# T1 sequence (P51531 with tags, fused parts or gaps): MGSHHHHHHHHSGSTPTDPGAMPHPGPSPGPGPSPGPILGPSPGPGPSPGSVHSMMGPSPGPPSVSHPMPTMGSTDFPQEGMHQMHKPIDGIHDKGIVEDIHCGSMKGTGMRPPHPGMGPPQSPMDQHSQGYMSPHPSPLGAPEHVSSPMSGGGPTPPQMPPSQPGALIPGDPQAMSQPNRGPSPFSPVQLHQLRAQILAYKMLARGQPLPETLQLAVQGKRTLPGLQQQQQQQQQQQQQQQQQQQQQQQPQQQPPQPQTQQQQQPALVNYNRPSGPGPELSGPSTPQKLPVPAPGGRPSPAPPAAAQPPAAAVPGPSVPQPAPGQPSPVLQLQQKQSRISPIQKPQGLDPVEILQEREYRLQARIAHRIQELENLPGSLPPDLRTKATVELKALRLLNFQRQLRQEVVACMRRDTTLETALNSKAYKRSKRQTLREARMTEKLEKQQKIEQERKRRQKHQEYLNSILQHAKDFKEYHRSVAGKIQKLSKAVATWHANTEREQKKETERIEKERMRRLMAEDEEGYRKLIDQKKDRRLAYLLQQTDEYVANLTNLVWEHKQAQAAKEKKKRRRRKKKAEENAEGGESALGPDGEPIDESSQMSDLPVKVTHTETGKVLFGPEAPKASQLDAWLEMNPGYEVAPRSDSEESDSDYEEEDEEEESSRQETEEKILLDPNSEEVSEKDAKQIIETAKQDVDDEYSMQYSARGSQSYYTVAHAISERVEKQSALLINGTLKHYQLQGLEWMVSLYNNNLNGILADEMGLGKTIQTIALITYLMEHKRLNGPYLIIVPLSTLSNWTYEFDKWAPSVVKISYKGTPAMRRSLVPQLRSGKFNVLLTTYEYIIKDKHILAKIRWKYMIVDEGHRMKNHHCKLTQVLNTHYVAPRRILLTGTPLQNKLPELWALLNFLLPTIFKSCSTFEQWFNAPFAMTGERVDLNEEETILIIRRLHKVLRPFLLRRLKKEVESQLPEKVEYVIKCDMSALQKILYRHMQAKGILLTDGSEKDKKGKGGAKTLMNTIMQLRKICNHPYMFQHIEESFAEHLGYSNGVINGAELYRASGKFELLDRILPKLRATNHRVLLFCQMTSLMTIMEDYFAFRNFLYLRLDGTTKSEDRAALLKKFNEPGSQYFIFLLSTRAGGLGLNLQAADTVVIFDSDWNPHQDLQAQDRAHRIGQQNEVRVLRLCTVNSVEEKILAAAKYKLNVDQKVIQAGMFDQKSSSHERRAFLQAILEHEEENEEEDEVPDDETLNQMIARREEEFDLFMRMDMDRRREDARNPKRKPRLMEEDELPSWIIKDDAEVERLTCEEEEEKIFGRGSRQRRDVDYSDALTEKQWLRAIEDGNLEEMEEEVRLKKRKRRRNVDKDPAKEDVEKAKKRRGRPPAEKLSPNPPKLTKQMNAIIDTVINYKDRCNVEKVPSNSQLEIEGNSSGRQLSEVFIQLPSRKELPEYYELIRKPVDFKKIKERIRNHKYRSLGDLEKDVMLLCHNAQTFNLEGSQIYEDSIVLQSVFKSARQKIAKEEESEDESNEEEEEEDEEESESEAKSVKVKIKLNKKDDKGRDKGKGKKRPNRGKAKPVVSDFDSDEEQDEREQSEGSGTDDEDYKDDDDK
SMILES,IC50 [1],IC50 [2],IC50 [3],IC50 [4]
Cn1cc(C#Cc2cc(C(=O)Nc3cc(F)c(=O)n(CC(F)F)c3)sc2Cl)cn1 [Compound 5c],28.5 nM,1160 nM,> 10000 nM,75.9 nM
O=C(Nc1cc(F)c(=O)n(CC(F)F)c1)c1cc(C#CC2CCOCC2)c(Cl)s1 [Compound 22c],30.1 nM,664 nM,> 10000 nM,60.8 nM
O=C(Nc1cc(F)c(=O)n(CC(F)F)c1)c1cc(F)c(C(F)(F)F)s1 [Compound 25c],14.2 nM,614 nM,> 10000 nM,
N#Cc1cccc(C#Cc2cc(C(=O)Nc3cc(F)c(=O)n(CC(F)F)c3)sc2Cl)c1 [Compound 34c],93.8 nM,1460 nM,> 10000 nM,233 nM
O=C(Nc1cc(F)c(=O)n(CC(F)F)c1)c1cc(C#Cc2ccc(Cl)cc2)c(Cl)s1 [Compound 35c],698 nM,3700 nM,8760 nM,905 nM
O=C(Nc1cc(F)c(=O)n(CC(F)F)c1)c1cc(C(F)(F)F)c(Cl)s1 [Compound 37c],482 nM,9050 nM,> 10000 nM,2490 nM
Cc1ncc(C#Cc2cc(C(=O)Nc3cc(F)c(=O)n(CC(F)F)c3)sc2Cl)s1 [Compound 39c],78 nM,1370 nM,> 10000 nM,143 nM
O=C(Nc1cc(F)c(=O)n(CC(F)F)c1)c1cc(C#Cc2cnccn2)c(Cl)s1 [Compound 40c],99.5 nM,2830 nM,> 10000 nM,259 nM
O=C(Nc1cc(F)c(=O)n(CC(F)F)c1)c1cc(C#Cc2ccccc2)c(Cl)s1 [Compound 41c],82.7 nM,4270 nM,> 10000 nM,250 nM
COc1cccc(C#Cc2cc(C(=O)Nc3cc(F)c(=O)n(CC(F)F)c3)sc2Cl)c1 [Compound 42c],203 nM,5080 nM,> 10000 nM,477 nM
N#Cc1ccc(C#Cc2cc(C(=O)Nc3cc(F)c(=O)n(CC(F)F)c3)sc2Cl)cc1 [Compound 43c],130 nM,2940 nM,> 10000 nM,329 nM
O=C(Nc1ccc(=O)n(CC(F)F)c1)c1cc(F)c(Cl)s1 [Compound 45c],98.1 nM,4260 nM,> 10000 nM,232 nM
O=C(Nc1cc(F)c(=O)n(CC(F)F)c1)c1cc(Cl)c(Cl)s1 [Compound 47c],65 nM,1410 nM,> 10000 nM,177 nM
O=C(Nc1cc(F)c(=O)n(CC(F)F)c1)c1sc(C(F)(F)F)cc1Cl [Compound 48c],25300 nM,> 10000 nM,> 10000 nM,> 50000 nM
CCn1cc(C#Cc2cc(C(=O)Nc3cc(F)c(=O)n(CC(F)F)c3)sc2Cl)cn1 [Compound 54c],45.2 nM,1920 nM,> 10000 nM,166 nM
O=C(Nc1cc(F)c(=O)n(CC(F)F)c1)c1cc(C#Cc2cccnn2)c(Cl)s1 [Compound 55c],77.8 nM,3780 nM,> 10000 nM,269 nM
